Patent US8956555B2, “Silylethynyl pentacene compounds and compositions and methods of making and using the same” (3M Innovative Properties Company, priority 2008, dated 2015)

Test: Solubility in organic solvent (toluene)
Format: physicochemical

C=CC[Si](C#Cc1c2cc3ccccc3cc2c(C#C[Si](CC=C)(C(C)C)C(C)C)c2cc3ccccc3cc12)(C(C)C)C(C)C [Compound I, 6,13-bis(allyldiisopropylsilylethynyl)pentacene]
solubility in toluene: greater than 21 wt %
